Reference: ChEMBL document CHEMBL3046822, “Synthesis, antiplatelet aggregation activity, and molecular modeling study of novel substituted-piperazine analogues” (2011)
The source made the active and inactive calls. The calls are words filed in the database; no cut-off is given here.

How the values were obtained:
[1] = system: Platelet; test: Antiaggregating activity in Homo sapiens (human) platelet rich plasma assessed as inhibition of ADP-induced platelet aggregation at 0.5 uM incubated for 4 min prior to ADP-induction measured for 5.5 min by turbidometric analysis; assay type: functional, cell-free
[2] = system: Platelet; test: Antiaggregating activity in Homo sapiens (human) platelet rich plasma assessed as inhibition of collagen-induced platelet aggregation at 1 uM incubated for 4 min prior to collagen-induction measured for 5.5 min by turbidometric analysis; assay type: functional, cell-free
[3] = system: Platelet; test: Antiaggregating activity in Homo sapiens (human) platelet rich plasma assessed as inhibition of adrenaline-induced platelet aggregation at 0.1 uM incubated for 4 min prior to adrenaline-induction measured for 5.5 min by turbidometric analysis; assay type: functional, cell-free
[4] = system: Platelet; test: Antiaggregating activity in Homo sapiens (human) platelet rich plasma assessed as inhibition of adrenaline-induced platelet aggregation at 1 uM incubated for 4 min prior to adrenaline-induction measured for 5.5 min by turbidometric analysis; assay type: functional, cell-free
[5] = Antiaggregating activity in Homo sapiens (human) platelet rich plasma assessed as disaggregation of ADP-induced platelet aggregation at 0.25 uM incubated for 4 min prior to ADP-induction measured for 5.5 min by turbidometric analysis relative to control; assay type: functional
[6] = system: Platelet; test: Antiaggregating activity in Homo sapiens (human) platelet rich plasma assessed as inhibition of ADP-induced platelet aggregation at 1 uM incubated for 4 min prior to ADP-induction measured for 5.5 min by turbidometric analysis; assay type: functional, cell-free
[7] = system: Platelet; test: Antiaggregating activity in Homo sapiens (human) platelet rich plasma assessed as inhibition of collagen-induced platelet aggregation at 0.5 uM incubated for 4 min prior to collagen-induction measured for 5.5 min by turbidometric analysis; assay type: functional, cell-free
[8] = Antiaggregating activity in Homo sapiens (human) platelet rich plasma assessed as arachidonic acid-induced platelet aggregation at 0.1 uM incubated for 4 min prior to arachidonic acid-induction measured for 5.5 min by turbidometric analysis (reference value: 55 to 100%); assay type: functional
[9] = system: Platelet; test: (§1) Antiaggregating activity in Homo sapiens (human) platelet rich plasma assessed as inhibition of arachidonic acid-induced platelet aggregation at 0.5 uM incubated for 4 min prior to arachidonic acid-induction measured for 5.5 min by turbidometric analysis; assay type: functional
[10] = Antiaggregating activity in Homo sapiens (human) platelet rich plasma assessed as ristocetin-induced platelet aggregation at 0.5 uM incubated for 4 min prior to ristocetin-induction measured for 5.5 min by turbidometric analysis (reference value: 65 to 99%); assay type: functional
[11] = system: Platelet; test: Antiaggregating activity in Homo sapiens (human) platelet rich plasma assessed as inhibition of adrenaline-induced platelet aggregation at 0.5 uM incubated for 4 min prior to adrenaline-induction measured for 5.5 min by turbidometric analysis; assay type: functional, cell-free
[12] = Antiaggregating activity in Homo sapiens (human) platelet rich plasma assessed as ristocetin-induced platelet aggregation at 1 uM incubated for 4 min prior to ristocetin-induction measured for 5.5 min by turbidometric analysis (reference value: 65 to 99%); assay type: functional
[13] = system: Platelet; test: (§2) Antiaggregating activity in Homo sapiens (human) platelet rich plasma assessed as inhibition of collagen-induced platelet aggregation at 0.25 uM incubated for 4 min prior to collagen-induction measured for 5.5 min by turbidometric analysis; assay type: functional
[14] = Antiaggregating activity in Homo sapiens (human) platelet rich plasma assessed as ADP-induced platelet aggregation at 0.1 uM incubated for 4 min prior to ADP-induction measured for 5.5 min by turbidometric analysis (reference value: 54 to 88%); assay type: functional
[15] = Antiaggregating activity in Homo sapiens (human) platelet rich plasma assessed as disaggregation of ristocetin-induced platelet aggregation at 0.25 uM incubated for 4 min prior to ristocetin-induction measured for 5.5 min by turbidometric analysis relative to control; assay type: functional
[16] = system: Platelet; test: Antiaggregating activity in Homo sapiens (human) platelet rich plasma assessed as inhibition of arachidonic acid-induced platelet aggregation at 1 uM incubated for 4 min prior to arachidonic acid-induction measured for 5.5 min by turbidometric analysis; assay type: functional, cell-free
[17] = Antiaggregating activity in Homo sapiens (human) platelet rich plasma assessed as ristocetin-induced platelet aggregation at 0.1 uM incubated for 4 min prior to ristocetin-induction measured for 5.5 min by turbidometric analysis (reference value: 65 to 99%); assay type: functional
[18] = system: Platelet; test: Antiaggregating activity in Homo sapiens (human) platelet rich plasma assessed as inhibition of collagen-induced platelet aggregation at 0.1 uM incubated for 4 min prior to collagen-induction measured for 5.5 min by turbidometric analysis; assay type: functional, cell-free
[19] = system: Platelet; test: Antiaggregating activity in Homo sapiens (human) platelet rich plasma assessed as inhibition of adrenaline-induced platelet aggregation at 0.25 uM incubated for 4 min prior to adrenaline-induction measured for 5.5 min by turbidometric analysis; assay type: functional, cell-free
[20] = system: Platelet; test: Antiaggregating activity in Homo sapiens (human) platelet rich plasma assessed as inhibition of arachidonic acid-induced platelet aggregation at 0.25 uM incubated for 4 min prior to arachidonic acid-induction measured for 5.5 min by turbidometric analysis; assay type: functional, cell-free
[21] = system: Platelet; test: Antiaggregating activity in Homo sapiens (human) platelet rich plasma assessed as inhibition of ADP-induced platelet aggregation at 0.25 uM incubated for 4 min prior to ADP-induction measured for 5.5 min by turbidometric analysis; assay type: functional, cell-free
[22] = system: Platelet; test: Antiaggregating activity in Homo sapiens (human) platelet rich plasma assessed as inhibition of ristocetin-induced platelet aggregation at 1 uM incubated for 4 min prior to ristocetin-induction measured for 5.5 min by turbidometric analysis; assay type: functional, cell-free
[23] = Antiaggregating activity in Homo sapiens (human) platelet rich plasma assessed as ristocetin-induced platelet aggregation at 0.25 uM incubated for 4 min prior to ristocetin-induction measured for 5.5 min by turbidometric analysis (reference value: 65 to 99%); assay type: functional
[24] = Antiaggregating activity in Homo sapiens (human) platelet rich plasma assessed as disaggregation of ADP-induced platelet aggregation at 0.06 uM incubated for 4 min prior to ADP-induction measured for 5.5 min by turbidometric analysis relative to control; assay type: functional
[25] = Antiaggregating activity in Homo sapiens (human) platelet rich plasma assessed as ristocetin-induced platelet aggregation at 0.125 uM incubated for 4 min prior to ristocetin-induction measured for 5.5 min by turbidometric analysis (reference value: 65 to 99%); assay type: functional
[26] = Antiaggregating activity in Homo sapiens (human) platelet rich plasma assessed as ADP-induced platelet aggregation at 0.03 uM incubated for 4 min prior to ADP-induction measured for 5.5 min by turbidometric analysis (reference value: 54 to 88%); assay type: functional
[27] = system: Platelet; test: Antiaggregating activity in Homo sapiens (human) platelet rich plasma assessed as inhibition of adrenaline-induced platelet aggregation at 0.125 uM incubated for 4 min prior to adrenaline-induction measured for 5.5 min by turbidometric analysis; assay type: functional, cell-free
[28] = Antiaggregating activity in Homo sapiens (human) platelet rich plasma assessed as collagen-induced platelet aggregation at 0.03 uM incubated for 4 min prior to collagen-induction measured for 5.5 min by turbidometric analysis (reference value: 50 to 98%); assay type: functional
[29] = Antiaggregating activity in Homo sapiens (human) platelet rich plasma assessed as arachidonic acid-induced platelet aggregation at 0.03 uM incubated for 4 min prior to arachidonic acid-induction measured for 5.5 min by turbidometric analysis (reference value: 55 to 100%); assay type: functional
[30] = system: Platelet; test: Antiaggregating activity in Homo sapiens (human) platelet rich plasma assessed as inhibition of arachidonic acid-induced platelet aggregation at 0.06 uM incubated for 4 min prior to arachidonic acid-induction measured for 5.5 min by turbidometric analysis; assay type: functional, cell-free
[31] = system: Platelet; test: Antiaggregating activity in Homo sapiens (human) platelet rich plasma assessed as inhibition of collagen-induced platelet aggregation at 0.125 uM incubated for 4 min prior to collagen-induction measured for 5.5 min by turbidometric analysis; assay type: functional, cell-free
[32] = Antiaggregating activity in Homo sapiens (human) platelet rich plasma assessed as ristocetin-induced platelet aggregation at 0.03 uM incubated for 4 min prior to ristocetin-induction measured for 5.5 min by turbidometric analysis (reference value: 65 to 99%); assay type: functional
[33] = Antiaggregating activity in Homo sapiens (human) platelet rich plasma assessed as ristocetin-induced platelet aggregation at 0.06 uM incubated for 4 min prior to ristocetin-induction measured for 5.5 min by turbidometric analysis (reference value: 65 to 99%); assay type: functional
[34] = system: Platelet; test: Antiaggregating activity in Homo sapiens (human) platelet rich plasma assessed as inhibition of ADP-induced platelet aggregation at 0.125 uM incubated for 4 min prior to ADP-induction measured for 5.5 min by turbidometric analysis; assay type: functional, cell-free
[35] = system: Platelet; test: Antiaggregating activity in Homo sapiens (human) platelet rich plasma assessed as inhibition of collagen-induced platelet aggregation at 0.06 uM incubated for 4 min prior to collagen-induction measured for 5.5 min by turbidometric analysis; assay type: functional, cell-free
[36] = system: Platelet; test: Antiaggregating activity in Homo sapiens (human) platelet rich plasma assessed as inhibition of adrenaline-induced platelet aggregation at 0.06 uM incubated for 4 min prior to adrenaline-induction measured for 5.5 min by turbidometric analysis; assay type: functional, cell-free
[37] = system: Platelet; test: Antiaggregating activity in Homo sapiens (human) platelet rich plasma assessed as inhibition of adrenaline-induced platelet aggregation at 0.03 uM incubated for 4 min prior to adrenaline-induction measured for 5.5 min by turbidometric analysis; assay type: functional, cell-free
[38] = system: Platelet; test: Antiaggregating activity in Homo sapiens (human) platelet rich plasma assessed as inhibition of arachidonic acid-induced platelet aggregation at 0.125 uM incubated for 4 min prior to arachidonic acid-induction measured for 5.5 min by turbidometric analysis; assay type: functional, cell-free
[39] = system: Platelet; test: Antiaggregating activity in Homo sapiens (human) platelet rich plasma assessed as inhibition of collagen-induced platelet aggregation at 0.03 uM incubated for 4 min prior to collagen-induction measured for 5.5 min by turbidometric analysis; assay type: functional, cell-free
[40] = system: Platelet; test: Antiaggregating activity in Homo sapiens (human) platelet rich plasma assessed as inhibition of collagen-induced platelet aggregation at 2 uM incubated for 4 min prior to collagen-induction measured for 5.5 min by turbidometric analysis; assay type: functional, cell-free
[41] = Antiaggregating activity in Homo sapiens (human) platelet rich plasma assessed as adrenaline-induced platelet aggregation at 0.25 uM incubated for 4 min prior to adrenaline-induction measured for 5.5 min by turbidometric analysis (reference value: 65 to 100%); assay type: functional
[42] = Antiaggregating activity in Homo sapiens (human) platelet rich plasma assessed as ADP-induced platelet aggregation at 0.25 uM incubated for 4 min prior to ADP-induction measured for 5.5 min by turbidometric analysis (reference value: 54 to 88%); assay type: functional
[43] = system: Platelet; test: Antiaggregating activity in Homo sapiens (human) platelet rich plasma assessed as inhibition of ristocetin-induced platelet aggregation at 2 uM incubated for 4 min prior to ristocetin-induction measured for 5.5 min by turbidometric analysis; assay type: functional, cell-free
[44] = as §1; assay type: functional; parameters: scale not given: the % may be the effect or the level left
[45] = Antiaggregating activity in Homo sapiens (human) platelet rich plasma assessed as disaggregation of ADP-induced platelet aggregation at 1 uM incubated for 4 min prior to ADP-induction measured for 5.5 min by turbidometric analysis relative to control; assay type: functional
[46] = system: Platelet; test: Antiaggregating activity in Homo sapiens (human) platelet rich plasma assessed as inhibition of ADP-induced platelet aggregation at 2 uM incubated for 4 min prior to ADP-induction measured for 5.5 min by turbidometric analysis; assay type: functional, cell-free
[47] = as §2; assay type: functional; parameters: scale not given: the % may be the effect or the level left
[48] = system: Platelet; test: Antiaggregating activity in Homo sapiens (human) platelet rich plasma assessed as inhibition of arachidonic acid-induced platelet aggregation at 2 uM incubated for 4 min prior to arachidonic acid-induction measured for 5.5 min by turbidometric analysis; assay type: functional, cell-free
[49] = system: Platelet; test: Antiaggregating activity in Homo sapiens (human) platelet rich plasma assessed as inhibition of adrenaline-induced platelet aggregation at 2 uM incubated for 4 min prior to adrenaline-induction measured for 5.5 min by turbidometric analysis; assay type: functional, cell-free

Structure (SMILES) | inhibition [1] | inhibition [2] | inhibition [4] | inhibition [6] | inhibition [7] | inhibition [9] | Activity [10] [%] | inhibition [11] | Activity [12] [%] | inhibition [13] | inhibition [16] | inhibition [19] | inhibition [20] | Activity [23] [%] | Activity [24] [%] | Activity [25] [%] | Activity [26] [%] | inhibition [27] | Activity [29] [%] | inhibition [30] | further results
Cl.O=C(C1CCCN(Cc2ccccc2F)C1)N1CCN(c2ccccc2Cl)CC1 (stereo not given) | Active | Active | Active | Active | Active | Active | 73 | Active | 50 | Active | Active | Active | Active |  |  |  |  |  |  |  | inhibition [3]: Active; Activity [5]: 38%; Activity [8]: 59%; Activity [14]: 74%; Activity [15]: 18%; Activity [17]: 50%; inhibition [18]: Active
COc1cc(C(=O)[n+]2cccc(C(=O)N3CCN(c4ccccc4Cl)CC3)c2)cc(OC)c1OC.[Cl-] | Active | Active | Active | Active | Active | Active | 20 | Active |  | Active | Active | Active | Active | 79 |  |  |  |  |  |  | inhibition [21]: Active; inhibition [22]: Active
Br.O=C(C1CCCN(Cc2ccc(CN3CCCC(C(=O)N4CCN(c5ccccc5Cl)CC4)C3)cc2)C1)N1CCN(c2ccccc2Cl)CC1 (stereo not given) | Active | Active | Active | Active | Active | Active | 35 | Active | 30 |  | Active |  |  |  | 27 | 31 | 84 | Active | 58 | Active | Activity [28]: 76%; inhibition [31]: Active; Activity [32]: 78%; Activity [33]: 61%; inhibition [34]: Active; inhibition [35]: Active; inhibition [36]: Active; inhibition [37]: Active; inhibition [38]: Active
Br.O=C(C1CCCN(Cc2ccc(Br)cc2)C1)N1CCN(c2ccccc2Cl)CC1 (stereo not given) |  | Active | Active | Active |  |  |  |  | 39 |  | Active |  |  |  | 20 | 53 | 55 | Active | 56 | Active | inhibition [39]: Active; inhibition [31]: Active; Activity [32]: 67%; Activity [33]: 62%; inhibition [34]: Active; inhibition [35]: Active; inhibition [36]: Active; inhibition [37]: Active; inhibition [38]: Active
O=C(c1ccc[n+](Cc2ccccc2)c1)N1CCN(C(=O)c2ccc[n+](Cc3ccccc3)c2)CC1.[Cl-].[Cl-] |  | Active | Active |  |  |  |  |  | 73 |  | Active |  |  | 80 |  |  |  |  |  |  | inhibition [40]: Active; Activity [41]: 66%; Activity [42]: 28%; inhibition [43]: Active; Activity [44]: 71%; Activity [45]: 25%; inhibition [46]: Active; Activity [47]: 79%; inhibition [48]: Active; inhibition [49]: Active
